{"source": "patent US12365696B2", "about": "“Small-molecule focal adhesion kinase (FAK) inhibitors” (DANA-FARBER CANCER INSTITUTE, INC., priority 2019, dated 2025)", "test_in_all_cases": "KINOMEscan", "format_in_all_cases": "binding", "key": {"BLK": {"target": "BLK (Homo sapiens (Human), UniProt P51451)", "details": "10000 nM, read-out: Percent Control"}, "PIK3CA(E545K)": {"target": "PIK3CA(E545K) (Homo sapiens (Human), UniProt P42336, E545K)", "sequence (P42336 whole entry E545K)": "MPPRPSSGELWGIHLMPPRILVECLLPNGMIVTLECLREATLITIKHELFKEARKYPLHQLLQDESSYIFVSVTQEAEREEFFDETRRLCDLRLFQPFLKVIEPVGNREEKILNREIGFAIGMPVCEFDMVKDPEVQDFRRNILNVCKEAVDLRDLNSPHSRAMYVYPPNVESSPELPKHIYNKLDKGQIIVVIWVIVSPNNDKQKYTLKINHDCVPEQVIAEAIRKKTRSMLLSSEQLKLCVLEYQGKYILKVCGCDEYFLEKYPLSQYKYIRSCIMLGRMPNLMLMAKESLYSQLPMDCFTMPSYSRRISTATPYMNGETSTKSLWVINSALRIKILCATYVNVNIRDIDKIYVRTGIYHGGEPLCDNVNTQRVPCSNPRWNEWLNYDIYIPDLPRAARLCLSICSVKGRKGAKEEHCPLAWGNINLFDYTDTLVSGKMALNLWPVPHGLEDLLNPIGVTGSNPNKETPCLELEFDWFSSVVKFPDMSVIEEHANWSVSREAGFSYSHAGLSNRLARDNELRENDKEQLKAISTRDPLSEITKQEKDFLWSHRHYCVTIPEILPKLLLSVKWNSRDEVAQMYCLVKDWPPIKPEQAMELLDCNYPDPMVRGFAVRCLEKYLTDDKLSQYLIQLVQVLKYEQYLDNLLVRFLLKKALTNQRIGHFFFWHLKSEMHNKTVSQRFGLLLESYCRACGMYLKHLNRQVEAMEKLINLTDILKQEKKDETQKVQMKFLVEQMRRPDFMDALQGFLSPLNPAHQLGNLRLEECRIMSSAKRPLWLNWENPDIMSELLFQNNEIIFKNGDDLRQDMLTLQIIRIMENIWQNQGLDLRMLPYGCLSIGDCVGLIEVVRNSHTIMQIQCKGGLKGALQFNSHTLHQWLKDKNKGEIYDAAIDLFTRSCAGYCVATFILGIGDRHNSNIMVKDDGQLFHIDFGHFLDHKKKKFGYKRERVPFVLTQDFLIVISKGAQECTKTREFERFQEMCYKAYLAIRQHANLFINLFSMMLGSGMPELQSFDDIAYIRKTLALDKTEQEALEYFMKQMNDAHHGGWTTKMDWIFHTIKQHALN", "details": "10000 nM, read-out: Percent Control"}, "PYK2": {"target": "PYK2 (Homo sapiens (Human), UniProt Q14289)", "details": "PYK2, 10000 nM; read-out: Percent Control"}, "TXK": {"target": "TXK (Homo sapiens (Human), UniProt P42681)", "details": "10000 nM, read-out: Percent Control"}, "ERK3": {"target": "ERK3 (Homo sapiens (Human), UniProt Q16659)", "details": "ERK3, 10000 nM; read-out: Percent Control"}, "NEK3": {"target": "NEK3 (Homo sapiens (Human), UniProt P51956)", "details": "NEK3, 10000 nM; read-out: Percent Control"}, "ALK(C1156Y)": {"target": "ALK(C1156Y) (Homo sapiens (Human), UniProt Q9UM73, C1156Y)", "details": "10000 nM, read-out: Percent Control"}, "SYK": {"target": "SYK (Homo sapiens (Human), UniProt P43405)", "details": "10000 nM, read-out: Percent Control"}, "[1]": {"target": "JAK1(JH1domain-catalytic) (Homo sapiens (Human), UniProt P23458)", "sequence (P23458 875-1153)": "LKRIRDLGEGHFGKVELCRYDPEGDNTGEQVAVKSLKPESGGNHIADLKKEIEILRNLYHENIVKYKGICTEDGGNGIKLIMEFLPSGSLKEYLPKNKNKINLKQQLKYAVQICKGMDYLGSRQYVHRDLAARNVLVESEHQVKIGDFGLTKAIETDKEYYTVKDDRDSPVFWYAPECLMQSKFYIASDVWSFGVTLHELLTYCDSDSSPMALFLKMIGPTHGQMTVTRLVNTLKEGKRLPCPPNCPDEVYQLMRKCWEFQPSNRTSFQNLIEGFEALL", "details": "10000 nM, read-out: Percent Control"}, "ERK1": {"target": "ERK1 (Homo sapiens (Human), UniProt P27361)", "details": "ERK1, 10000 nM; read-out: Percent Control"}, "TNIK": {"target": "TNIK (Homo sapiens (Human), UniProt Q9UKE5)", "details": "10000 nM, read-out: Percent Control"}, "YSK4": {"target": "YSK4 (Homo sapiens (Human), UniProt Q56UN5)", "sequence (Q56UN5 whole entry)": "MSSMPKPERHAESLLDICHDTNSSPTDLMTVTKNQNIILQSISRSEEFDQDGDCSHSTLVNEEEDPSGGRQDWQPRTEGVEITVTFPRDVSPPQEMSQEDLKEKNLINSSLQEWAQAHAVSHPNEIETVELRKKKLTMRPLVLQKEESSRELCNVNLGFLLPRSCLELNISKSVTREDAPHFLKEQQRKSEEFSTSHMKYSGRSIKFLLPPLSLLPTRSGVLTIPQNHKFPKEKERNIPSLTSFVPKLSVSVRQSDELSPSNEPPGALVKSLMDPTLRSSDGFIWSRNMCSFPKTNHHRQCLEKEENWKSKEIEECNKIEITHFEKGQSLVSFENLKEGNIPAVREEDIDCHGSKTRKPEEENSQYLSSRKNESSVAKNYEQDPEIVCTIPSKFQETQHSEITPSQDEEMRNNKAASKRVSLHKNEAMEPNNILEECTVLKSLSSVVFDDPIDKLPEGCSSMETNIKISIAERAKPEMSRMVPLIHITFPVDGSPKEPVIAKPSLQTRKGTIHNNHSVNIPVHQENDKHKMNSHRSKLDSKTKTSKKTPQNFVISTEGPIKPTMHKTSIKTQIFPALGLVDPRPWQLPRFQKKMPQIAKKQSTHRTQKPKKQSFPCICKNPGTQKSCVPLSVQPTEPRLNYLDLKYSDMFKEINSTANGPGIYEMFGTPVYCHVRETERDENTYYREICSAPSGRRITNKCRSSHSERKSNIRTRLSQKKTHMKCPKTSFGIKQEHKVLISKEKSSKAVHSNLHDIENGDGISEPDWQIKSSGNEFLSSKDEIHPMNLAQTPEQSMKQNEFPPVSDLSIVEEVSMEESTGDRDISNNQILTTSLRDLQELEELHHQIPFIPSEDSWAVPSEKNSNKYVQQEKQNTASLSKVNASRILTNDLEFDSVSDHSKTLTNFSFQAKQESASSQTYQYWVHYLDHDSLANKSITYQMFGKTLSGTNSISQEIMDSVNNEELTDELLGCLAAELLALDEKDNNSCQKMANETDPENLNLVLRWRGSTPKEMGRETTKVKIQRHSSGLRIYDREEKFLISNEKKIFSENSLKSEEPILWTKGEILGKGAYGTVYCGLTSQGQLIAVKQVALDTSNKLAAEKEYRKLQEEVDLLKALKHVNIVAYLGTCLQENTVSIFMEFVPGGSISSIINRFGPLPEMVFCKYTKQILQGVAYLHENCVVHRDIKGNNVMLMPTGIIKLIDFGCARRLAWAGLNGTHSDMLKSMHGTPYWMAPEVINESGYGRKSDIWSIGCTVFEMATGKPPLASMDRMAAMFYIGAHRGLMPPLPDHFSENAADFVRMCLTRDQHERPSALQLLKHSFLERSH", "details": "YSK4, 10000 nM; read-out: Percent Control"}, "ERBB3": {"target": "ERBB3 (Homo sapiens (Human), UniProt P21860)", "details": "ERBB3, 10000 nM; read-out: Percent Control"}, "MAP4K3": {"target": "MAP4K3 (Homo sapiens (Human), UniProt Q8IVH8)", "details": "MAP4K3, 10000 nM; read-out: Percent Control"}, "LIMK2": {"target": "LIMK2 (Homo sapiens (Human), UniProt P53671)", "sequence (P53671 whole entry)": "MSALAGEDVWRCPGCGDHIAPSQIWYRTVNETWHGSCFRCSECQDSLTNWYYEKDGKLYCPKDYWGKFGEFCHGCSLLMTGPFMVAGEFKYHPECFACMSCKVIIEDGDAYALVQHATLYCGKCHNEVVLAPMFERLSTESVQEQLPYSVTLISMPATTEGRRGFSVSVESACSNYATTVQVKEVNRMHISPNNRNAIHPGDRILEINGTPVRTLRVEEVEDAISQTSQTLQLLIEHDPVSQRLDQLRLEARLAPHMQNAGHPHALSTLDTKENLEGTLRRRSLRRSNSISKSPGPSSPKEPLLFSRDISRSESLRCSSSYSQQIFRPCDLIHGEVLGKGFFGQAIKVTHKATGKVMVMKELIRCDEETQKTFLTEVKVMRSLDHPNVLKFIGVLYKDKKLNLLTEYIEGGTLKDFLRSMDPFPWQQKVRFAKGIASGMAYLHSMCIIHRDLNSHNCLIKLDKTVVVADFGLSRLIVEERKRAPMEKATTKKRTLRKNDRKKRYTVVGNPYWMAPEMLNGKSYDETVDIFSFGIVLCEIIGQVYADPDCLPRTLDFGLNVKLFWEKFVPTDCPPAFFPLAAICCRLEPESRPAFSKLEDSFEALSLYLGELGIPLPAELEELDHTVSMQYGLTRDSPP", "details": "LIMK2, 10000 nM; read-out: Percent Control"}, "CSF1R-autoinhibited": {"target": "CSF1R-autoinhibited (Homo sapiens (Human), UniProt P07333)", "details": "10000 nM, read-out: Percent Control"}, "PIP5K2B": {"target": "PIP5K2B (Homo sapiens (Human), UniProt P78356)", "details": "10000 nM, read-out: Percent Control"}, "[2]": {"target": "EGFR(L747-E749del, A750P) (Homo sapiens (Human), UniProt P00533, A750P/DEL747-749)", "details": "10000 nM, read-out: Percent Control"}, "TAOK3": {"target": "TAOK3 (Homo sapiens (Human), UniProt Q9H2K8)", "details": "TAOK3, 10000 nM; read-out: Percent Control"}, "VEGFR2": {"target": "VEGFR2 (Homo sapiens (Human), UniProt P35968)", "details": "VEGFR2, 10000 nM; read-out: Percent Control"}, "MERTK": {"target": "MERTK (Homo sapiens (Human), UniProt Q12866)", "details": "10000 nM, read-out: Percent Control"}, "DAPK3": {"target": "DAPK3 (Homo sapiens (Human), UniProt O43293)", "details": "DAPK3, 10000 nM; read-out: Percent Control"}, "WNK4": {"target": "WNK4 (Homo sapiens (Human), UniProt Q96J92)", "details": "WNK4, 10000 nM; read-out: Percent Control"}, "[3]": {"target": "RPS6KA4(Kin.Dom.1-N-terminal) (Homo sapiens (Human), UniProt O75676)", "details": "10000 nM, read-out: Percent Control"}, "STK33": {"target": "STK33 (Homo sapiens (Human), UniProt Q9BYT3)", "sequence (Q9BYT3 whole entry)": "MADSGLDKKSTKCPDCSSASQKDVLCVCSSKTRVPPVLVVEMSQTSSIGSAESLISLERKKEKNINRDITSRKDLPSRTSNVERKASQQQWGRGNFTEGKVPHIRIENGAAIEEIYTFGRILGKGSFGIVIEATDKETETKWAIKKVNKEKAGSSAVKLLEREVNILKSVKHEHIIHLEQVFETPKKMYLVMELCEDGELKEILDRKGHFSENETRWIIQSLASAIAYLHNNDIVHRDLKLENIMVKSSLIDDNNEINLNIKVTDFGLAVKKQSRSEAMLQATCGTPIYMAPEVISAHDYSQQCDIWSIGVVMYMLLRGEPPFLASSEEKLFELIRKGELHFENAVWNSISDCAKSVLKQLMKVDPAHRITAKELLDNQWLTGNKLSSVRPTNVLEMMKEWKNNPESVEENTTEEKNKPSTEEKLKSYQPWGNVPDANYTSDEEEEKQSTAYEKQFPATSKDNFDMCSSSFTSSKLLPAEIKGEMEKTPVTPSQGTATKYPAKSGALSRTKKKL", "details": "STK33, 10000 nM; read-out: Percent Control"}, "PIK3CA(H1047L)": {"target": "PIK3CA(H1047L) (Homo sapiens (Human), UniProt P42336, H1047L)", "details": "10000 nM, read-out: Percent Control"}, "FYN": {"target": "FYN (Homo sapiens (Human), UniProt P06241)", "details": "10000 nM, read-out: Percent Control"}, "ERBB2": {"target": "ERBB2 (Homo sapiens (Human), UniProt P04626)", "sequence (P04626 23-1255)": "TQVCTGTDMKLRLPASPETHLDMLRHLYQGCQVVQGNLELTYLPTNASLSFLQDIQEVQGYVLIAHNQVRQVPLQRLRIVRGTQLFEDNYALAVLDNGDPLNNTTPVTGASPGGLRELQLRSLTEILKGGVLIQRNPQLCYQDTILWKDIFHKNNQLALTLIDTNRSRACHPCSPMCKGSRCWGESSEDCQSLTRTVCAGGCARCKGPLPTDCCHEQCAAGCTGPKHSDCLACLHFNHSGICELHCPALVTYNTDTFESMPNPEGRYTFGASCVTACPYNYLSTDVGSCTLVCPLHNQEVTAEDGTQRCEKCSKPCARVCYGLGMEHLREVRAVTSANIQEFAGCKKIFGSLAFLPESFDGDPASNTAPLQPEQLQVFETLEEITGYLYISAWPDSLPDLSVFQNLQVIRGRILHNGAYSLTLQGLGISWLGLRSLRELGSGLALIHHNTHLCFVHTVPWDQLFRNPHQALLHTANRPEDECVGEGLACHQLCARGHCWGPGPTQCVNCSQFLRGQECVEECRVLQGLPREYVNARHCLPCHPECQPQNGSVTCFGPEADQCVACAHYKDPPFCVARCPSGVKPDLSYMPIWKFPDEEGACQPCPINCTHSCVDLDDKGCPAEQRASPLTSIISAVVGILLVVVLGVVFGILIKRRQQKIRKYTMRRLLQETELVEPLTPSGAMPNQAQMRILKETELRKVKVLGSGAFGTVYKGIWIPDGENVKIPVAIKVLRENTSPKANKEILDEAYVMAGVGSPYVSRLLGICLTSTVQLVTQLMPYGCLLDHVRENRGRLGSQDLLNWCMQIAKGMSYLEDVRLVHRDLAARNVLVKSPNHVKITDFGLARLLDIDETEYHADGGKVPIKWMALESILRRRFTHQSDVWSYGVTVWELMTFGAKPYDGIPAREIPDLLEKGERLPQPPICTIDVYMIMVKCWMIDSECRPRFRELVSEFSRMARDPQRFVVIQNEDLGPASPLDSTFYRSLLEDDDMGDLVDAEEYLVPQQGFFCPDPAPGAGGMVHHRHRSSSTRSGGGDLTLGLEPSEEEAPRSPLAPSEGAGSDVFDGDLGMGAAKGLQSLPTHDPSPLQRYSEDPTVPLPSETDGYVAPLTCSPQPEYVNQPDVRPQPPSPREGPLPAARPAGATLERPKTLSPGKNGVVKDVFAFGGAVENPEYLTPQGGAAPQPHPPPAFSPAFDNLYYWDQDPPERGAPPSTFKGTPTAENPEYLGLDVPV", "details": "ERBB2, 10000 nM; read-out: Percent Control"}, "ASK1": {"target": "ASK1 (Homo sapiens (Human), UniProt Q99683)", "details": "ASK1, 10000 nM; read-out: Percent Control"}, "PRKX": {"target": "PRKX (Homo sapiens (Human), UniProt P51817)", "details": "10000 nM, read-out: Percent Control"}, "WEE2": {"target": "WEE2 (Homo sapiens (Human), UniProt P0C1S8)", "details": "WEE2, 10000 nM; read-out: Percent Control"}, "TAOK1": {"target": "TAOK1 (Homo sapiens (Human), UniProt Q7L7X3)", "details": "TAOK1, 10000 nM; read-out: Percent Control"}, "FLT3(K663Q)": {"target": "FLT3(K663Q) (Homo sapiens (Human), UniProt P36888, K663Q)", "details": "10000 nM, read-out: Percent Control"}, "KIT(V559D, T670I)": {"target": "KIT(V559D, T670I) (Homo sapiens (Human), UniProt P10721, T670I/V559D)", "details": "10000 nM, read-out: Percent Control"}}, "data": [{"compound": "COc1cc(N2CCC(N3CCN(C)CC3)CC2)ccc1Nc1ncc2c(n1)N(C)c1sc(C)nc1C(=O)N2", "note": "[Compound 3, 6-((2-methoxy-4-(4-(4-methylpiperazin-1-yl)piperidin-1-yl)phenyl)amino)-2,4-dimethyl-4,9-dihydro-10H-pyrimido[5,4-b]thiazolo[5,4-e][1,4]diazepin-10-one]", "values": [{"measurement": "remaining binding at 10 µM", "setting": "BLK", "value": 55, "unit": "%"}, {"measurement": "remaining binding at 10 µM", "setting": "PIK3CA(E545K)", "value": 90, "unit": "%"}, {"measurement": "remaining binding at 10 µM", "setting": "PYK2", "value": 41, "unit": "%"}, {"measurement": "remaining binding at 10 µM", "setting": "TXK", "value": 73, "unit": "%"}, {"measurement": "remaining binding at 10 µM", "setting": "ERK3", "value": 89, "unit": "%"}, {"measurement": "remaining binding at 10 µM", "setting": "NEK3", "value": 88, "unit": "%"}, {"measurement": "remaining binding at 10 µM", "setting": "ALK(C1156Y)", "value": 100, "unit": "%"}, {"measurement": "remaining binding at 10 µM", "setting": "SYK", "value": 77, "unit": "%"}, {"measurement": "remaining binding at 10 µM", "setting": "[1]", "value": 85, "unit": "%"}, {"measurement": "remaining binding at 10 µM", "setting": "ERK1", "value": 88, "unit": "%"}, {"measurement": "remaining binding at 10 µM", "setting": "TNIK", "value": 94, "unit": "%"}, {"measurement": "remaining binding at 10 µM", "setting": "YSK4", "value": 100, "unit": "%"}, {"measurement": "remaining binding at 10 µM", "setting": "ERBB3", "value": 100, "unit": "%"}, {"measurement": "remaining binding at 10 µM", "setting": "MAP4K3", "value": 100, "unit": "%"}, {"measurement": "remaining binding at 10 µM", "setting": "LIMK2", "value": 91, "unit": "%"}, {"measurement": "remaining binding at 10 µM", "setting": "CSF1R-autoinhibited", "value": 90, "unit": "%"}, {"measurement": "remaining binding at 10 µM", "setting": "PIP5K2B", "value": 76, "unit": "%"}, {"measurement": "remaining binding at 10 µM", "setting": "[2]", "value": 95, "unit": "%"}, {"measurement": "remaining binding at 10 µM", "setting": "TAOK3", "value": 100, "unit": "%"}, {"measurement": "remaining binding at 10 µM", "setting": "VEGFR2", "value": 100, "unit": "%"}, {"measurement": "remaining binding at 10 µM", "setting": "MERTK", "value": 93, "unit": "%"}, {"measurement": "remaining binding at 10 µM", "setting": "DAPK3", "value": 62, "unit": "%"}, {"measurement": "remaining binding at 10 µM", "setting": "WNK4", "value": 100, "unit": "%"}, {"measurement": "remaining binding at 10 µM", "setting": "[3]", "value": 100, "unit": "%"}, {"measurement": "remaining binding at 10 µM", "setting": "STK33", "value": 84, "unit": "%"}, {"measurement": "remaining binding at 10 µM", "setting": "PIK3CA(H1047L)", "value": 66, "unit": "%"}, {"measurement": "remaining binding at 10 µM", "setting": "FYN", "value": 73, "unit": "%"}, {"measurement": "remaining binding at 10 µM", "setting": "ERBB2", "value": 98, "unit": "%"}, {"measurement": "remaining binding at 10 µM", "setting": "ASK1", "value": 74, "unit": "%"}, {"measurement": "remaining binding at 10 µM", "setting": "PRKX", "value": 96, "unit": "%"}, {"measurement": "remaining binding at 10 µM", "setting": "WEE2", "value": 65, "unit": "%"}, {"measurement": "remaining binding at 10 µM", "setting": "TAOK1", "value": 100, "unit": "%"}, {"measurement": "remaining binding at 10 µM", "setting": "FLT3(K663Q)", "value": 96, "unit": "%"}, {"measurement": "remaining binding at 10 µM", "setting": "KIT(V559D, T670I)", "value": 86, "unit": "%"}]}, {"compound": "COc1cc(N2CCC(N3CCN(C)CC3)CC2)ccc1Nc1ncc2c(n1)N(C)c1sc(C)nc1C(=O)N2C", "note": "[Compound 5, 6-((2-methoxy-4-(4-(4-methylpiperazin-1-yl)piperidin-1-yl)phenyl)amino)-2,4,9-trimethyl-4,9-dihydro-10H-pyrimido[5,4-b]thiazolo[5,4-e][1,4]diazepin-10-one]", "values": [{"measurement": "remaining binding at 10 µM", "setting": "BLK", "value": 95, "unit": "%"}, {"measurement": "remaining binding at 10 µM", "setting": "PIK3CA(E545K)", "value": 100, "unit": "%"}, {"measurement": "remaining binding at 10 µM", "setting": "PYK2", "value": 85, "unit": "%"}, {"measurement": "remaining binding at 10 µM", "setting": "TXK", "value": 99, "unit": "%"}, {"measurement": "remaining binding at 10 µM", "setting": "ERK3", "value": 100, "unit": "%"}, {"measurement": "remaining binding at 10 µM", "setting": "NEK3", "value": 100, "unit": "%"}, {"measurement": "remaining binding at 10 µM", "setting": "ALK(C1156Y)", "value": 89, "unit": "%"}, {"measurement": "remaining binding at 10 µM", "setting": "SYK", "value": 89, "unit": "%"}, {"measurement": "remaining binding at 10 µM", "setting": "[1]", "value": 100, "unit": "%"}, {"measurement": "remaining binding at 10 µM", "setting": "ERK1", "value": 92, "unit": "%"}, {"measurement": "remaining binding at 10 µM", "setting": "TNIK", "value": 99, "unit": "%"}, {"measurement": "remaining binding at 10 µM", "setting": "YSK4", "value": 93, "unit": "%"}, {"measurement": "remaining binding at 10 µM", "setting": "ERBB3", "value": 100, "unit": "%"}, {"measurement": "remaining binding at 10 µM", "setting": "MAP4K3", "value": 100, "unit": "%"}, {"measurement": "remaining binding at 10 µM", "setting": "LIMK2", "value": 98, "unit": "%"}, {"measurement": "remaining binding at 10 µM", "setting": "CSF1R-autoinhibited", "value": 100, "unit": "%"}, {"measurement": "remaining binding at 10 µM", "setting": "PIP5K2B", "value": 39, "unit": "%"}, {"measurement": "remaining binding at 10 µM", "setting": "[2]", "value": 97, "unit": "%"}, {"measurement": "remaining binding at 10 µM", "setting": "TAOK3", "value": 77, "unit": "%"}, {"measurement": "remaining binding at 10 µM", "setting": "VEGFR2", "value": 95, "unit": "%"}, {"measurement": "remaining binding at 10 µM", "setting": "MERTK", "value": 100, "unit": "%"}, {"measurement": "remaining binding at 10 µM", "setting": "DAPK3", "value": 97, "unit": "%"}, {"measurement": "remaining binding at 10 µM", "setting": "WNK4", "value": 100, "unit": "%"}, {"measurement": "remaining binding at 10 µM", "setting": "[3]", "value": 100, "unit": "%"}, {"measurement": "remaining binding at 10 µM", "setting": "STK33", "value": 10, "unit": "%"}, {"measurement": "remaining binding at 10 µM", "setting": "PIK3CA(H1047L)", "value": 80, "unit": "%"}, {"measurement": "remaining binding at 10 µM", "setting": "FYN", "value": 93, "unit": "%"}, {"measurement": "remaining binding at 10 µM", "setting": "ERBB2", "value": 100, "unit": "%"}, {"measurement": "remaining binding at 10 µM", "setting": "ASK1", "value": 88, "unit": "%"}, {"measurement": "remaining binding at 10 µM", "setting": "PRKX", "value": 99, "unit": "%"}, {"measurement": "remaining binding at 10 µM", "setting": "WEE2", "value": 100, "unit": "%"}, {"measurement": "remaining binding at 10 µM", "setting": "TAOK1", "value": 80, "unit": "%"}, {"measurement": "remaining binding at 10 µM", "setting": "FLT3(K663Q)", "value": 96, "unit": "%"}, {"measurement": "remaining binding at 10 µM", "setting": "KIT(V559D, T670I)", "value": 95, "unit": "%"}]}]}
